According to article PMC12040169 (PLOS Biology, 2025):

Experiment: in vitro
Conditions: human, hela cells, % viability

Structure (SMILES)	viability at 28.5 h, 10 µM [%]
COC(C)c1nc(C)c(C(=O)NC2CCCN(c3ccn(C)n3)C2=O)s1 (stereo not shown) [CBK305454]	100
CC(C)(C)OC(=O)N1CCCC(C(=O)NC(CO)Cc2ccccn2)C1 (stereo not shown) [CBK305458]	88.4
Cc1c(C(=O)N2CCNC(=O)C2(C)C)nnn1Cc1ccc(F)cc1F [CBK305461]	80.2
CN(c1cccc(C#N)c1)C1CCN(c2nc3c(cnn3C)c(=O)[nH]2)C1 (stereo not shown) [CBK305462]	91.8
Cc1ncsc1C(=O)N1CCNCC1c1cccc(F)c1 (stereo not shown) [CBK305463]	93.1
Cc1cc(C(C)NC(=O)C2CCCN(S(C)(=O)=O)C2)c(C)s1 (stereo not shown) [CBK305464]	98.4
CN(CCC1CCN(c2ccncc2)CC1)C(=O)c1cc2sccc2[nH]1 [CBK305468]	93.3
Cc1ccc(C)c(CC(=O)N(CCC(=O)O)C2CCOCC2)c1 [CBK305469]	92.3
CC(C)NC(=O)CN1CCN(c2ccc(C#N)cc2Cl)CC1 [CBK305470]	88.3
Cn1cc(N2CCN(C(=O)CCOc3ccccc3)CC2)cn1 [CBK305473]	102
O=C(CN1CCC(C(O)C(=O)NC2CC2)CC1)Nc1cc(Cl)ccc1F (stereo not shown) [CBK305477]	93.4
N#Cc1ccc(S(=O)(=O)N2CCC(OCc3ccncc3)C2)cn1 (stereo not shown) [CBK305478]	91
COc1ccc2[nH]cc(C3CCN(C(=O)c4cc(C#N)c[nH]4)CC3)c2c1 [CBK305479]	93.2
Cn1cc(C(=O)CCC(=O)NC2CCCN(c3ncccn3)C2)cn1 (stereo not shown) [CBK305480]	94.1
O=C(c1ncc(F)cc1F)N1CCCCC1CN1CCOCC1 (stereo not shown) [CBK305482]	102
Cc1ncc(S(=O)(=O)N2CCC(OCc3ccncc3)C2)s1 (stereo not shown) [CBK305483]	99.5
COC(=O)c1cc(C(=O)Nc2ccc(OCCC(N)=O)cc2)c[nH]1 [CBK305486]	103
COCC1CCN(C(=O)Nc2ccc(F)c(N3CCCNC3=O)c2)C1 (stereo not shown) [CBK305487]	100
CN(C(=O)CCn1c(=O)oc2cc(Cl)ccc21)C1(C(N)=O)CCCC1 [CBK305493]	89.1
Cc1csc(S(=O)(=O)Cc2nnc(C)n2C2CC2)n1 [CBK305494]	98.4
Cn1cncc1CN1CCNC(=O)C1c1ccccc1C(F)(F)F (stereo not shown) [CBK305495]	98
Brc1ccc(C2(c3nnc(C4CC4)o3)CCOCC2)cc1 [CBK305498]	98.2
CC(C)(C)OC(=O)C1(NC(=O)Cc2cn3ccccc3n2)CCCC1 [CBK305500]	95.9

Structure (SMILES)	viability at 28.5 h, 10 µM [%]
Cc1nn(C)c(C)c1C1CCCN1CC(=O)NCc1ccccn1 (stereo not shown) [CBK305501]	94.9
Cc1cc(NC(=O)CN2CCN(Cc3ccc(Cl)nc3)CC2)no1 [CBK305504]	104
Cc1c(C(=O)N2CCN(C3CC3)CC2)nnn1Cc1ccc(F)cc1F [CBK305507]	97.1
Cc1cccn2c(=O)cc(CN3CCc4nn(C)c(=O)cc4C3)nc12 [CBK305514]	98.2
CCNC(=O)CN1CCN(c2nc(C(F)(F)F)ccc2C#N)CC1 [CBK305515]	86.4
CCCC(=O)Nc1ccc(OCc2ncc(C(C)C)o2)c(C(C)=O)c1 [CBK305516]	100
CC(=O)c1cccc(NC(=O)N(CCO)C2CCc3ccccc32)c1 (stereo not shown) [CBK305517]	93.4
Cc1cccn2c(=O)cc(CN3CCC(n4ccnc4)CC3)nc12 [CBK305519]	92.3
CNC(=O)c1ccc(NC(=O)N2CCCCC2c2ccnn2C)cc1 (stereo not shown) [CBK305521]	112
Cc1nnsc1C(=O)Nc1ncn(CC(=O)N2CCCCCC2)n1 [CBK305522]	96.9
COc1ccc(Cl)cc1C1(CNC(=O)C2CCC(N)C2)CCOCC1 (stereo not shown) [CBK305523]	85.9
O=C(O)c1ccc(C(=O)NC2CCN(CC(F)(F)F)C2=O)s1 (stereo not shown) [CBK305524]	95.4
CC(=O)Nc1cccc(CN2CCCC(CO)C2)c1 (stereo not shown) [CBK305527]	91.9
Cc1nnnn1-c1cc(NC(=O)NCC2CCCO2)ccc1F (stereo not shown) [CBK305528]	105
Cc1c(C(=O)N2CCS(=O)(=O)CC2)nnn1-c1ccc2ncccc2c1 [CBK305529]	112
CN(C(=O)C1(C)CCOCC1)c1nc2c(s1)CC(c1ccccc1)CC2 (stereo not shown) [CBK305531]	82.8
O=C1NC(=O)C2(CCN(C(=O)c3csc4c3CCCC4)C2)N1 (stereo not shown) [CBK305533]	89.8
CC(C)Cc1nc(C(=O)N2CCC3(C2)NC(=O)NC3=O)cs1 (stereo not shown) [CBK305534]	91.8
CC(C)N(C)CC(=O)N(C)c1nc2c(s1)CC(c1ccccc1)CC2 (stereo not shown) [CBK305535]	93.7
Cn1cc(CNS(=O)(=O)c2ccc(Br)c(F)c2)cn1 [CBK305539]	87.7
CC1CCC(N(Cc2nnc(C3CCC3)n2C)CC2CCCO2)CC1 (stereo not shown) [CBK305540]	97.3
O=C(c1ccc2cc[nH]c2c1)N1CCN(CC2CCOC2)CC1 (stereo not shown) [CBK305541]	99.2
CC(C)n1nnnc1-c1ccccc1NS(=O)(=O)c1cn[nH]c1 [CBK305542]	88.6
